Laboratory results from ChEMBL document CHEMBL1201862, “PubChem BioAssay data set” (2004).
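Values below derive from 48-hour exposures of cells grown in 96-well plates, with endpoints linearly interpolated between the two concentrations bracketing the appropriate inhibition level. GI50 = concentration required for 50% inhibition of growth.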 Activity calls are given as the source filed them. Cut-off read from the data, not from the text of the source: active = GI50 up to about 1.1 µM and inactive = higher.

Legend:
Test in all cases: inhibition of tumour cell growth, NCI panel, 48 h
UACC-62 = test system: UACC-62
MDA-N = test system: MDA-N
Hs-578T = test system: Hs-578T
NCI-H23 = test system: NCI-H23
NCI/ADR-RES = test system: NCI/ADR-RES
OVCAR-5 = test system: OVCAR-5
SF-268 = test system: SF-268
M14 = test system: M14
OVCAR-4 = test system: OVCAR-4
SK-MEL-5 = test system: SK-MEL-5
NCI-H226 = test system: NCI-H226
SK-MEL-2 = test system: SK-MEL-2
T47D = test system: T47D
HT-29 = test system: HT-29
SR = test system: SR
U-251 = test system: U-251
BT-549 = test system: BT-549
MDA-MB-231 = test system: MDA-MB-231
SF-539 = test system: SF-539
SK-MEL-28 = test system: SK-MEL-28

| Compound | GI50 (UACC-62) | GI50 (MDA-N) | GI50 (Hs-578T) | GI50 (NCI-H23) | GI50 (NCI/ADR-RES) | GI50 (OVCAR-5) | GI50 (SF-268) | GI50 (M14) | GI50 (OVCAR-4) | GI50 (SK-MEL-5) | GI50 (NCI-H226) | GI50 (SK-MEL-2) | GI50 (T47D) | GI50 (HT-29) | GI50 (SR) | GI50 (U-251) | GI50 (BT-549) | GI50 (MDA-MB-231) | GI50 (SF-539) | GI50 (SK-MEL-28) |
| --- | --- | --- | --- | --- | --- | --- | --- | --- | --- | --- | --- | --- | --- | --- | --- | --- | --- | --- | --- | --- |
| COc1ccc(/C=C/C(=N/NC(=O)N/N=C(/C=C/c2ccc(OC)cc2)C(C)C)C(C)C)cc1 | > 100 µM (inactive) | > 100 µM (inactive) | > 100 µM (inactive) | > 100 µM (inactive) | 69.7 µM (inactive) | 99.5 µM (inactive) | > 100 µM (inactive) | 44.4 µM (inactive) | > 100 µM (inactive) | 95.9 µM (inactive) | > 100 µM (inactive) | > 100 µM (inactive) | 25.9 µM (inactive) | 42.3 µM (inactive) | > 100 µM (inactive) | 71 µM (inactive) | > 100 µM (inactive) | > 100 µM (inactive) | > 100 µM (inactive) | > 100 µM (inactive) |
| O=C(N/N=C/c1ccc([N+](=O)[O-])o1)c1ccc(C(=O)N/N=C/c2ccc([N+](=O)[O-])o2)cc1 | 13.8 µM (inactive) | 20.7 µM (inactive) | > 100 µM (inactive) | 42.3 µM (inactive) | 73.3 µM (inactive) | > 100 µM (inactive) | 64.7 µM (inactive) | 35.5 µM (inactive) | 45 µM (inactive) | 22.6 µM (inactive) | > 100 µM (inactive) | 74.5 µM (inactive) | 41.3 µM (inactive) | 38.6 µM (inactive) | 29.8 µM (inactive) | 50.2 µM (inactive) | > 100 µM (inactive) | > 100 µM (inactive) | 14.9 µM (inactive) | 13.2 µM (inactive) |
| CCC1=NC(C(F)(F)F)(C(F)(F)F)N=C(/N=C(/N)N(C)C(C(C)C)P(=O)(OC(C)C)OC(C)C)O1 (stereo not given) | > 100 µM (inactive) | > 100 µM (inactive) | > 100 µM (inactive) | > 100 µM (inactive) | > 100 µM (inactive) | > 100 µM (inactive) | > 100 µM (inactive) | > 100 µM (inactive) | > 100 µM (inactive) | > 100 µM (inactive) | > 100 µM (inactive) | > 100 µM (inactive) | > 100 µM (inactive) | > 100 µM (inactive) | > 100 µM (inactive) | > 100 µM (inactive) | > 100 µM (inactive) | > 100 µM (inactive) | > 100 µM (inactive) | > 100 µM (inactive) |
| N#Cc1c(O)nc2nn3c4ccc5ccccc5c4nnc3c2c1-c1ccc(Cl)cc1 | 1.49 µM (inactive) | 2.52 µM (inactive) | 2.76 µM (inactive) | 1.97 µM (inactive) | 4.55 µM (inactive) | 6.24 µM (inactive) | 2.51 µM (inactive) | 2.38 µM (inactive) | 3.58 µM (inactive) | 1.92 µM (inactive) | 7.14 µM (inactive) | 1.9 µM (inactive) | 0.313 µM (active) | 2.94 µM (inactive) | 0.675 µM (active) | 2.12 µM (inactive) | 0.174 µM (active) | 5.36 µM (inactive) | 1.96 µM (inactive) | 2.24 µM (inactive) |
| O/N=N/c1cnccn1 | > 959 µM (inactive) | > 1250 µM (inactive) | > 1210 µM (inactive) | 859 µM (inactive) | > 1250 µM (inactive) | > 1250 µM (inactive) | > 1250 µM (inactive) | > 1250 µM (inactive) | > 438 µM (inactive) | > 1250 µM (inactive) | 1250 µM (inactive) | > 1200 µM (inactive) | 933 µM (inactive) | > 1250 µM (inactive) | > 180 µM (inactive) | 1080 µM (inactive) | > 979 µM (inactive) | > 1250 µM (inactive) | > 1190 µM (inactive) | > 1250 µM (inactive) |
